Several values for one entry are separate records, joined by “and”; a condition that tells them apart may be missing. Equal entries are not always repeated.
Key:
[1] = system: SkBr3-TxR; experiment: SRB cell viability assay, lapatinib with/without wilforlide A pretreatment; type: cell-based; conditions: SkBr3-TxR; for A at 565 nm: background = 0.051
[2] = system: Bt474-TxR; experiment: as above; type: cell-based; conditions: Bt474-TxR, wilforlide A 2.5 μg/ml pre-Tx; for A at 565 nm: background = 0.045
[3] = no wilforlide A pre-Tx, lapatinib 0.01 μM 72 h
[4] = no wilforlide A pre-Tx, lapatinib 0.2 μM 72 h
[5] = no wilforlide A pre-Tx, lapatinib 0.67 μM 72 h
[6] = no wilforlide A pre-Tx, lapatinib 2.0 μM 72 h
[7] = no wilforlide A pre-Tx, lapatinib 6.7 μM 72 h
[8] = no wilforlide A pre-Tx, lapatinib 20 μM 72 h
[9] = wilforlide A 2.5 μg/ml pre-Tx, lapatinib 0.01 μM 72 h
[10] = wilforlide A 2.5 μg/ml pre-Tx, lapatinib 0.067 μM 72 h
[11] = wilforlide A 2.5 μg/ml pre-Tx, lapatinib 0.2 μM 72 h
[12] = wilforlide A 2.5 μg/ml pre-Tx, lapatinib 0.67 μM 72 h
[13] = wilforlide A 2.5 μg/ml pre-Tx, lapatinib 2.0 μM 72 h
[14] = wilforlide A 2.5 μg/ml pre-Tx, lapatinib 6.7 μM 72 h

Question: How did the viability at 0.001 µM ([1]; 72 h, no wilforlide A pre-Tx, lapatinib 0.001 μM 72 h) turn out when `CS(=O)(=O)CCNCc1ccc(-c2ccc3ncnc(Nc4ccc(OCc5cccc(F)c5)c(Cl)c4)c3c2)o1` [lapatinib] was run?
Answer: 100%

Question: And the viability at 0.01 µM ([1]; 72 h, no wilforlide A pre-Tx, lapatinib 0.01 μM 72 h)?
Answer: 101%

Question: And the viability at 0.067 µM ([1]; 72 h, no wilforlide A pre-Tx, lapatinib 0.067 μM 72 h)?
Answer: 96.6%

Question: What about the viability at 0.2 µM ([1]; 72 h, no wilforlide A pre-Tx, lapatinib 0.2 μM 72 h) of the same compound?
Answer: 90%

Question: What about the viability at 0.67 µM ([1]; 72 h, no wilforlide A pre-Tx, lapatinib 0.67 μM 72 h) of the same compound?
Answer: 85.6%

Question: What about the viability at 2 µM ([1]; 72 h, no wilforlide A pre-Tx, lapatinib 2.0 μM 72 h) of the same compound?
Answer: 73.5%

Question: And the viability at 6.7 µM ([1]; 72 h, no wilforlide A pre-Tx, lapatinib 6.7 μM 72 h)?
Answer: 61.6%

Question: And the viability at 20 µM ([1]; 72 h, no wilforlide A pre-Tx, lapatinib 20 μM 72 h)?
Answer: 42.6%

Question: What about the viability at 0.001 µM ([1]; 72 h, wilforlide A 2.5 μg/ml pre-Tx, lapatinib 0.001 μM 72 h) of the same compound?
Answer: 100%

Question: And the viability at 0.01 µM ([1]; 72 h, wilforlide A 2.5 μg/ml pre-Tx, lapatinib 0.01 μM 72 h)?
Answer: 89%

Question: What about the viability at 0.067 µM ([1]; 72 h, wilforlide A 2.5 μg/ml pre-Tx, lapatinib 0.067 μM 72 h) of the same compound?
Answer: 77.2%

Question: What about the viability at 0.2 µM ([1]; 72 h, wilforlide A 2.5 μg/ml pre-Tx, lapatinib 0.2 μM 72 h) of the same compound?
Answer: 69.1%

Question: And the viability at 0.67 µM ([1]; 72 h, wilforlide A 2.5 μg/ml pre-Tx, lapatinib 0.67 μM 72 h)?
Answer: 59.5%

Question: What about the viability at 6.7 µM ([1]; 72 h, wilforlide A 2.5 μg/ml pre-Tx, lapatinib 6.7 μM 72 h) of the same compound?
Answer: 40.7%

Question: And the viability at 20 µM ([1]; 72 h, wilforlide A 2.5 μg/ml pre-Tx, lapatinib 20 μM 72 h)?
Answer: 31.1%

Question: What about the “mean A” value ([1]; no wilforlide A pre-Tx, lapatinib 0.001 μM 72 h) of the same compound?
Answer: 2.302

Question: And the “mean A” value [1, 3]?
Answer: 2.322

Question: What about the “A at 565 nm” value [1, 3] of the same compound?
Answer: 2.458

Question: And the “mean A” value ([1]; no wilforlide A pre-Tx, lapatinib 0.067 μM 72 h)?
Answer: 2.222

Question: And the “mean A” value [1, 4]?
Answer: 2.071

Question: What about the “A at 565 nm” value [1, 4] of the same compound?
Answer: 1.945

Question: And the “mean A” value [1, 5]?
Answer: 1.970

Question: And the “A at 565 nm” value [1, 5]?
Answer: 1.871 and 1.990 and 2.048

Question: What about the “mean A” value [1, 6] of the same compound?
Answer: 1.692

Question: And the “A at 565 nm” value [1, 6]?
Answer: 1.609 and 1.759 and 1.708

Question: And the “mean A” value [1, 7]?
Answer: 1.418

Question: What about the “A at 565 nm” value [1, 7] of the same compound?
Answer: 1.426 and 1.445 and 1.384

Question: And the “mean A” value [1, 8]?
Answer: 0.980

Question: And the “A at 565 nm” value [1, 8]?
Answer: 0.958 and 1.024 and 0.957

Question: And the “mean A” value ([1]; wilforlide A 2.5 μg/ml pre-Tx, lapatinib 0.001 μM 72 h)?
Answer: 2.265

Question: What about the “mean A” value [1, 9] of the same compound?
Answer: 2.016

Question: What about the “A at 565 nm” value [1, 9] of the same compound?
Answer: 1.817 and 1.976

Question: And the “mean A” value [1, 10]?
Answer: 1.748

Question: And the “A at 565 nm” value [1, 10]?
Answer: 1.344 and 1.909 and 1.992

Question: And the “mean A” value [1, 11]?
Answer: 1.564

Question: And the “A at 565 nm” value [1, 11]?
Answer: 1.299 and 1.540 and 1.854

Question: And the “mean A” value [1, 12]?
Answer: 1.347

Question: And the “A at 565 nm” value [1, 12]?
Answer: 1.127 and 1.398 and 1.517

Question: What about the “mean A” value [1, 13] of the same compound?
Answer: 1.140

Question: And the “A at 565 nm” value [1, 13]?
Answer: 0.987 and 1.095 and 1.339

Question: What about the “mean A” value [1, 14] of the same compound?
Answer: 0.922

Question: And the “A at 565 nm” value [1, 14]?
Answer: 0.794 and 0.932 and 1.040

Question: What about the “A at 565 nm” value ([1]; wilforlide A 2.5 μg/ml pre-Tx, lapatinib 20 μM 72 h) of the same compound?
Answer: 0.731 and 0.673 and 0.706

Question: And the IC50 ([1]; wilforlide A 2.5 μg/ml pre-Tx, read-out: Drug IC50 after wilforlide A pre-Tx)?
Answer: 886 nM

Question: And the CE ([1]; chemosensitization effect, wilforlide A 2.5 μg/ml pre-Tx)?
Answer: 13

Question: What about the viability at 0.001 µM ([2]; 72 h, lapatinib 0.001 μM 72 h) of the same compound?
Answer: 100%

Question: And the viability at 0.01 µM ([2]; 72 h, lapatinib 0.01 μM 72 h)?
Answer: 103%

Question: What about the viability at 0.067 µM ([2]; 72 h, lapatinib 0.067 μM 72 h) of the same compound?
Answer: 96.1%

Question: What about the viability at 0.2 µM ([2]; 72 h, lapatinib 0.2 μM 72 h) of the same compound?
Answer: 84.8%

Question: And the viability at 0.67 µM ([2]; 72 h, lapatinib 0.67 μM 72 h)?
Answer: 76%

Question: And the viability at 2 µM ([2]; 72 h, lapatinib 2.0 μM 72 h)?
Answer: 67.4%

Question: What about the viability at 6.7 µM ([2]; 72 h, lapatinib 6.7 μM 72 h) of the same compound?
Answer: 70.2%

Question: And the viability at 20 µM ([2]; 72 h, lapatinib 20 μM 72 h)?
Answer: 60.9%

Question: And the “mean A” value ([2]; lapatinib 0.001 μM 72 h)?
Answer: 1.260

Question: What about the “A at 565 nm” value ([2]; lapatinib 0.001 μM 72 h) of the same compound?
Answer: 1.301 and 1.370

Question: And the “mean A” value ([2]; lapatinib 0.01 μM 72 h)?
Answer: 1.293

Question: And the “A at 565 nm” value ([2]; lapatinib 0.01 μM 72 h)?
Answer: 1.309 and 1.368

Question: And the “A at 565 nm” value ([2]; lapatinib 0.067 μM 72 h)?
Answer: 1.297

Question: What about the “mean A” value ([2]; lapatinib 0.67 μM 72 h) of the same compound?
Answer: 0.957

From US10201523B2, “Use of wilforlide A for overcoming chemotherapy resistance” (WESTERN UNIVERSITY OF HEALTH SCIENCES, priority 2013, dated 2019)
